Test results reported in patent US20240365781A1, “SYNERGISTICALLY EFFECTIVE HERBICIDE COMPOSITION COMPRISING PELARGONIC ACID AND FLAZASULFURON” (Belchim Crop Protection NV, priority 2017, published 2024).

Tests used:
Test in all cases: post-emergence field trial under rows of apple trees, 150-200 L water/ha (Examples 10-12)
Type in all cases: in vivo
[1] = tested on: Taraxacum officinalis
Protocol: (§1) Herbicidal activity was determined by performing a post-emergence test. […] The corresponding mixture was in the form of a spray solution. Besides, spray solutions of individual compositions comprising pelargonic acid or flazasulfuron were used.
(§2) The spray solution was applied on plants of unwanted vegetation present on fields where perennial crops were grown.
(§3) After 5 to 88 days after application of the spray solution, the degree of damage to the unwanted vegetation is rated in % of plants of unwanted vegetation that were killed. Tests were performed on test fields (field trials).

[2] = tested on: Stellaria media
Protocol: as §1, §2, §3

[3] = tested on: Setaria viridis
Protocol: as §1, §2, §3

[4] = tested on: Sonchus oleracea
Protocol: as §1, §2, §3

[5] = tested on: Chenopodium album
Protocol: as §1, §2, §3

[6] = tested on: Lolium multiflorum
Protocol: as §1, §2, §3

In the case of `CCCCCCCCC(=O)O` [Pelargonic acid, nonanoic acid], the “herbicidal effect (%)” value ([1]; Taraxacum officinalis/5 d, 5440 g of active compound/ha) is reported as 11%, the “herbicidal effect (%)” value ([1]; Taraxacum officinalis/18 d, 5440 g of active compound/ha) is reported as 0% and the “herbicidal effect (%)” value ([1]; Taraxacum officinalis/18 d, 8160 g of active compound/ha) is reported as 0%. For the same compound, the “herbicidal effect (%)” value ([1]; Taraxacum officinalis/18 d, 10880 g of active compound/ha) was 9%, the “herbicidal effect (%)” value ([1]; Taraxacum officinalis/32 d, 5440 g of active compound/ha) was 0% and the “herbicidal effect (%)” value ([1]; Taraxacum officinalis/32 d, 8160 g of active compound/ha) was 0%. For the same compound, the “herbicidal effect (%)” value ([1]; Taraxacum officinalis/32 d, 10880 g of active compound/ha) was 0%, the “herbicidal effect (%)” value ([1]; Taraxacum officinalis/61 d, 5440 g of active compound/ha) was 0% and the “herbicidal effect (%)” value ([1]; Taraxacum officinalis/61 d, 8160 g of active compound/ha) was 0%. For the same compound, the “herbicidal effect (%)” value ([1]; Taraxacum officinalis/61 d, 10880 g of active compound/ha) was 0%, the “herbicidal effect (%)” value ([1]; Taraxacum officinalis/88 d, 5440 g of active compound/ha) was 0% and the “herbicidal effect (%)” value ([1]; Taraxacum officinalis/88 d, 8160 g of active compound/ha) was 0%. For the same compound, the “herbicidal effect (%)” value ([1]; Taraxacum officinalis/88 d, 10880 g of active compound/ha) was 0%, the “herbicidal effect (%)” value ([2]; Stellaria media/5 d, 5440 g of active compound/ha) was 5% and the “herbicidal effect (%)” value ([2]; Stellaria media/5 d, 10880 g of active compound/ha) was 89%. For the same compound, the “herbicidal effect (%)” value ([2]; Stellaria media/18 d, 5440 g of active compound/ha) was 0%, the “herbicidal effect (%)” value ([2]; Stellaria media/18 d, 8160 g of active compound/ha) was 0% and the “herbicidal effect (%)” value ([2]; Stellaria media/18 d, 10880 g of active compound/ha) was 0%. For the same compound, the “herbicidal effect (%)” value ([3]; Setaria viridis/6 d, 5440 g of active compound/ha) was 13%, the “herbicidal effect (%)” value ([3]; Setaria viridis/6 d, 8160 g of active compound/ha) was 35% and the “herbicidal effect (%)” value ([3]; Setaria viridis/6 d, 10880 g of active compound/ha) was 40%. For the same compound, the “herbicidal effect (%)” value ([3]; Setaria viridis/16 d, 5440 g of active compound/ha) was 43%, the “herbicidal effect (%)” value ([3]; Setaria viridis/16 d, 8160 g of active compound/ha) was 45% and the “herbicidal effect (%)” value ([3]; Setaria viridis/16 d, 10880 g of active compound/ha) was 48%. The “herbicidal effect (%)” value ([3]; Setaria viridis/30 d, 5440 g of active compound/ha) was 53%, the “herbicidal effect (%)” value ([3]; Setaria viridis/30 d, 8160 g of active compound/ha) was 53% and the “herbicidal effect (%)” value ([3]; Setaria viridis/30 d, 10880 g of active compound/ha) was 53%. The “herbicidal effect (%)” value ([3]; Setaria viridis/57 d, 5440 g of active compound/ha) was 0%, the “herbicidal effect (%)” value ([3]; Setaria viridis/57 d, 8160 g of active compound/ha) was 0% and the “herbicidal effect (%)” value ([3]; Setaria viridis/57 d, 10880 g of active compound/ha) was 0%. The “herbicidal effect (%)” value ([3]; Setaria viridis/78 d, 5440 g of active compound/ha) was 0%, the “herbicidal effect (%)” value ([3]; Setaria viridis/78 d, 8160 g of active compound/ha) was 0% and the “herbicidal effect (%)” value ([3]; Setaria viridis/78 d, 10880 g of active compound/ha) was 0%. The “herbicidal effect (%)” value ([4]; Sonchus oleracea/6 d, 5440 g of active compound/ha) was 25%, the “herbicidal effect (%)” value ([4]; Sonchus oleracea/6 d, 8160 g of active compound/ha) was 50% and the “herbicidal effect (%)” value ([4]; Sonchus oleracea/6 d, 10880 g of active compound/ha) was 55%. The “herbicidal effect (%)” value ([4]; Sonchus oleracea/16 d, 5440 g of active compound/ha) was 48%, the “herbicidal effect (%)” value ([4]; Sonchus oleracea/16 d, 8160 g of active compound/ha) was 43% and the “herbicidal effect (%)” value ([4]; Sonchus oleracea/16 d, 10880 g of active compound/ha) was 45%. For the same compound, the “herbicidal effect (%)” value ([4]; Sonchus oleracea/30 d, 5440 g of active compound/ha) was 40%, the “herbicidal effect (%)” value ([4]; Sonchus oleracea/30 d, 8160 g of active compound/ha) was 48% and the “herbicidal effect (%)” value ([4]; Sonchus oleracea/30 d, 10880 g of active compound/ha) was 53%. For the same compound, the “herbicidal effect (%)” value ([4]; Sonchus oleracea/57 d, 5440 g of active compound/ha) was 0%, the “herbicidal effect (%)” value ([4]; Sonchus oleracea/57 d, 8160 g of active compound/ha) was 0% and the “herbicidal effect (%)” value ([4]; Sonchus oleracea/57 d, 10880 g of active compound/ha) was 0%. The “herbicidal effect (%)” value ([4]; Sonchus oleracea/78 d, 5440 g of active compound/ha) was 0%, the “herbicidal effect (%)” value ([4]; Sonchus oleracea/78 d, 8160 g of active compound/ha) was 0% and the “herbicidal effect (%)” value ([4]; Sonchus oleracea/78 d, 10880 g of active compound/ha) was 0%. The “herbicidal effect (%)” value ([5]; Chenopodium album/6 d, 5440 g of active compound/ha) was 20%, the “herbicidal effect (%)” value ([5]; Chenopodium album/6 d, 8160 g of active compound/ha) was 50% and the “herbicidal effect (%)” value ([5]; Chenopodium album/6 d, 10880 g of active compound/ha) was 60%. The “herbicidal effect (%)” value ([5]; Chenopodium album/16 d, 5440 g of active compound/ha) was 48%, the “herbicidal effect (%)” value ([5]; Chenopodium album/16 d, 8160 g of active compound/ha) was 63% and the “herbicidal effect (%)” value ([5]; Chenopodium album/16 d, 10880 g of active compound/ha) was 63%. The “herbicidal effect (%)” value ([5]; Chenopodium album/30 d, 5440 g of active compound/ha) was 55%, the “herbicidal effect (%)” value ([5]; Chenopodium album/30 d, 8160 g of active compound/ha) was 58% and the “herbicidal effect (%)” value ([5]; Chenopodium album/30 d, 10880 g of active compound/ha) was 70%. For the same compound, the “herbicidal effect (%)” value ([5]; Chenopodium album/57 d, 5440 g of active compound/ha) was 0%, the “herbicidal effect (%)” value ([5]; Chenopodium album/57 d, 8160 g of active compound/ha) was 0% and the “herbicidal effect (%)” value ([5]; Chenopodium album/57 d, 10880 g of active compound/ha) was 0%. For the same compound, the “herbicidal effect (%)” value ([5]; Chenopodium album/78 d, 5440 g of active compound/ha) was 0%, the “herbicidal effect (%)” value ([5]; Chenopodium album/78 d, 8160 g of active compound/ha) was 0% and the “herbicidal effect (%)” value ([5]; Chenopodium album/78 d, 10880 g of active compound/ha) was 0%. The “herbicidal effect (%)” value ([6]; Lolium multiflorum/5 d, 5440 g of active compound/ha) was 3%, the “herbicidal effect (%)” value ([6]; Lolium multiflorum/5 d, 10880 g of active compound/ha) was 13% and the “herbicidal effect (%)” value ([6]; Lolium multiflorum/18 d, 5440 g of active compound/ha) was 0%. For the same compound, the “herbicidal effect (%)” value ([6]; Lolium multiflorum/18 d, 8160 g of active compound/ha) was 0%, the “herbicidal effect (%)” value ([6]; Lolium multiflorum/18 d, 10880 g of active compound/ha) was 0% and the “herbicidal effect (%)” value ([6]; Lolium multiflorum/32 d, 5440 g of active compound/ha) was 0%. For the same compound, the “herbicidal effect (%)” value ([6]; Lolium multiflorum/32 d, 8160 g of active compound/ha) was 0%, the “herbicidal effect (%)” value ([6]; Lolium multiflorum/32 d, 10880 g of active compound/ha) was 0% and the “herbicidal effect (%)” value ([6]; Lolium multiflorum/61 d, 5440 g of active compound/ha) was 0%. For the same compound, the “herbicidal effect (%)” value ([6]; Lolium multiflorum/61 d, 8160 g of active compound/ha) was 0% and the “herbicidal effect (%)” value ([6]; Lolium multiflorum/61 d, 10880 g of active compound/ha) was 0%.
